# Reference: US8877707B2, “Inhibitors of HCV NS5A” (Presidio Pharmaceuticals, Inc., priority 2010, dated 2014)
# System: HCV genotype 1b replicon in Huh 7 cells
# Assay: HCV replicon assay (1b_Huh-Luc/Neo-ET cell line, luciferase readout)
# Format: cell-based
# Conditions: Hepatitis C virus; Table 1; genotype 1b replicon, Huh 7 cells, 72 h, luciferase; read-out: Inhibition of HCV genotype 1b
# Outline: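 Huh 7 cells carrying a bicistronic genotype 1b luciferase replicon were treated with compound in triplicate the day after plating and incubated 72 h. Luciferase activity expressed as % of untreated control; EC50 from a four-parameter logistic fit, repeated several times.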
row,Compound,EC50 [nM]
1,COC(=O)N[C@H](C(=O)N1CCC[C@H]1c1nc(-c2ccc3cc(-c4ccc(-c5cnc([C@@H]6CCCN6C(=O)[C@H](NC(=O)OC)c6ccsc6)[nH]5)cc4)ccc3c2)c[nH]1)C1CCOCC1 [compound 110],< 1
2,COC(=O)N[C@H](C(=O)N1CCC[C@H]1c1nc(-c2ccc3cc(-c4ccc(-c5cnc([C@@H]6CCCN6C(=O)[C@H](NC(=O)OC)c6ccc(F)cc6)[nH]5)cc4)ccc3c2)c[nH]1)C1CCOCC1 [compound 111],< 1
3,COC(=O)N[C@H](C(=O)N1CCC[C@H]1c1nc(-c2ccc3cc(-c4ccc(-c5cnc([C@@H]6CCCN6C(=O)[C@@H](NC(=O)OC6CCOCC6)c6ccccc6)[nH]5)cc4)ccc3c2)c[nH]1)C1CCOCC1 [compound 112],< 1
4,COC(=O)N[C@H](C(=O)N1CCC[C@H]1c1nc(-c2ccc3cc(-c4ccc(-c5cnc([C@@H]6CCCN6C(=O)[C@H](NC(=O)OC6CCOCC6)c6ccccc6)[nH]5)cc4)ccc3c2)c[nH]1)C1CCOCC1 [compound 113],< 1
5,COC(=O)N[C@H](C(=O)N1CCC[C@H]1c1nc(-c2ccc3cc(-c4ccc(-c5cnc([C@@H]6CCCN6C(=O)[C@H](NC(=O)OC)c6ccccc6)[nH]5)cc4F)ccc3c2)c[nH]1)C1CCOCC1 [compound 114],< 1
6,COC(=O)N[C@H](C(=O)N1CCC[C@H]1c1ncc(-c2ccc3cc(-c4ccc(-c5cnc([C@@H]6CCCN6C(=O)[C@H](NC(=O)OC)c6ccccc6)[nH]5)cc4)ccc3c2)[nH]1)[C@@H](C)OC [compound 115],< 1
7,COC(=O)N[C@H](C(=O)N1CCC[C@H]1c1ncc(-c2ccc3cc(-c4ccc(-c5cnc([C@@H]6CCCN6C(=O)[C@@H](c6ccccc6)N6CCOCC6)[nH]5)cc4)ccc3c2)[nH]1)C(C)C [compound 116],< 1
8,COC(=O)N[C@H](C(=O)N1CCC[C@H]1c1ncc(-c2ccc3cc(-c4ccc(-c5cnc([C@@H]6CCCN6C(=O)[C@H](NC(=O)OC6CCOCC6)c6ccccc6)[nH]5)cc4)ncc3c2)[nH]1)C1CCOCC1 [compound 117],< 1
9,COC(=O)N[C@H](C(=O)N1CCC[C@H]1c1ncc(-c2ccc3cc(-c4ccc(-c5cnc([C@@H]6CCCN6C(=O)[C@H](NC(=O)OC(C)(C)C)c6ccccc6)[nH]5)cc4)ncc3c2)[nH]1)C1CCOCC1 [compound 118],< 1
10,COC(=O)N[C@H](C(=O)N1CCC[C@H]1c1ncc(-c2ccc(-c3ccc4cc(-c5cnc([C@@H]6CCCN6C(=O)[C@H](NC(=O)OC)c6ccccc6)[nH]5)ccc4n3)c(F)c2)[nH]1)C(C)C [compound 119],< 1
11,COC(=O)N[C@H](C(=O)N1CCC[C@H]1c1ncc(-c2ccc(-c3ccc4cc(-c5cnc([C@@H]6CCCN6C(=O)[C@@H](NC(=O)OC)C6CCOCC6)[nH]5)ccc4n3)c(F)c2)[nH]1)C(C)C [compound 120],< 1
12,COC(=O)N[C@H](C(=O)N1CCC[C@H]1c1ncc(-c2ccc(-c3ccc4cc(-c5cnc([C@@H]6CCCN6C(=O)[C@H](NC(=O)OC6CCOCC6)c6ccccc6)[nH]5)ccc4n3)c(F)c2)[nH]1)C(C)C [compound 121],< 1
13,COC(=O)N[C@H](C(=O)N1CCC[C@H]1c1ncc(-c2ccc(-c3ccc4cc(-c5cnc([C@@H]6CCCN6C(=O)[C@H](NC(=O)OC(C)(C)C)c6ccccc6)[nH]5)ccc4n3)c(F)c2)[nH]1)C(C)C [compound 122],< 1
14,COC(=O)N[C@H](C(=O)N1CCC[C@H]1c1ncc(-c2ccc(-c3ccc4cc(-c5cnc([C@@H]6CCCN6C(=O)[C@@H](NC(=O)OC)C6CCOCC6)[nH]5)ccc4n3)cc2F)[nH]1)C(C)C [compound 123],< 1
15,COC(=O)N[C@H](C(=O)N1CCC[C@H]1c1ncc(-c2ccc(-c3ccc4cc(-c5cnc([C@@H]6CCCN6C(=O)[C@H](NC(=O)OC)c6ccccc6)[nH]5)ccc4n3)cc2F)[nH]1)C(C)C [compound 124],< 1
16,COC(=O)N[C@H](C(=O)N1CCC[C@H]1c1ncc(-c2ccc(-c3ccc4cc(-c5cnc([C@@H]6CCCN6C(=O)[C@H](NC(=O)OC6CCOCC6)c6ccccc6)[nH]5)ccc4n3)cc2F)[nH]1)C(C)C [compound 125],< 1
17,COC(=O)N[C@H](C(=O)N1CCC[C@H]1c1ncc(-c2ccc3nc(-c4ccc(-c5cnc([C@@H]6CCCN6C(=O)[C@@H](NC(=O)OC)C(C)C)[nH]5)c(F)c4)ccc3c2)[nH]1)C(C)C [compound 126],< 1
18,COC(=O)N[C@H](C(=O)N1CCC[C@H]1c1ncc(-c2ccc3cc(-c4ccc(-c5cnc([C@@H]6CCCN6C(=O)[C@H](NC(=O)OC)c6ccccc6)[nH]5)c(F)c4)ncc3c2)[nH]1)C1CCOCC1 [compound 127],< 1
19,COC(=O)N[C@H](C(=O)N1CCC[C@H]1c1ncc(-c2ccc(-c3cc4ccc(-c5cnc([C@@H]6CCCN6C(=O)[C@@H](NC(=O)OC)C6CCOCC6)[nH]5)cc4cn3)cc2F)[nH]1)C(C)C [compound 128],< 1
20,COC(=O)N[C@H](C(=O)N1CCC[C@H]1c1ncc(-c2ccc(-c3ccc4cc(-c5cnc([C@@H]6CCCN6C(=O)[C@H](NC(=O)OC)c6ccccc6)[nH]5)ccc4n3)c(F)c2)[nH]1)C1CCOCC1 [compound 129],< 1

row,Compound,EC50 [nM]
1,COC(=O)N[C@H](C(=O)N1CCC[C@H]1c1ncc(-c2cccc(-c3cccc4cc(-c5cnc([C@@H]6CCCN6C(=O)[C@@H](NC(=O)OC)C(C)C)[nH]5)ccc34)c2)[nH]1)C(C)C [compound 130],< 1
2,COC(=O)N[C@H](C(=O)N1CCC[C@H]1c1ncc(-c2ccc3cc(-c4ccc(-c5cnc([C@@H]6COCCN6C(=O)[C@H](NC(=O)OC)c6ccccc6)[nH]5)cc4)ccc3c2)[nH]1)C(C)C [compound 131],< 1
3,COC(=O)N[C@H](C(=O)N1CCC[C@H]1c1ncc(-c2ccc(-c3ccc4cc(-c5cnc([C@@H]6COCCN6C(=O)[C@H](NC(=O)OC)c6ccccc6)[nH]5)ccc4c3)cc2)[nH]1)C(C)C [compound 132],< 1
4,COC(=O)N[C@H](C(=O)N1CCC[C@H]1c1ncc(-c2ccc(-c3ccc4cc(-c5cnc([C@@H]6CCCN6C(=O)[C@@H](NC(=O)OC)C6CCOCC6)[nH]5)ccc4c3)cc2)[nH]1)C1CCOCC1 [compound 133],< 1
5,COC(=O)N[C@H](C(=O)N1CCC[C@H]1c1ncc(-c2ccc3nc(-c4ccc(-c5cnc([C@@H]6CCCN6C(=O)[C@H](NC(=O)OC)c6ccccc6)[nH]5)cc4F)ccc3c2)[nH]1)C1CCOCC1 [compound 134],< 1
6,COC(=O)N[C@H](C(=O)N1CCC[C@H]1c1ncc(-c2ccc3nc(-c4ccc(-c5cnc([C@@H]6CCCN6C(=O)[C@H](NC(=O)OC(C)(C)C)c6ccccc6)[nH]5)cc4F)ccc3c2)[nH]1)C1CCOCC1 [compound 135],< 1
7,COC(=O)N[C@H](C(=O)N1CCC[C@H]1c1ncc(-c2ccc(-c3ccc4cc(-c5cnc([C@@H]6CCCN6C(=O)[C@H](NC(=O)OC(C)(C)C)c6ccccc6)[nH]5)ccc4n3)c(F)c2)[nH]1)C1CCOCC1 [compound 136],< 1
8,COC(=O)N[C@H](C(=O)N1CCOC[C@H]1c1ncc(-c2ccc(-c3ccc4cc(-c5cnc([C@@H]6CCCN6C(=O)[C@H](NC(=O)OC)c6ccccc6)[nH]5)ccc4c3)cc2)[nH]1)C(C)C [compound 137],< 1
9,COC(=O)N[C@H](C(=O)N1CCOC[C@H]1c1ncc(-c2ccc3cc(-c4ccc(-c5cnc([C@@H]6CCCN6C(=O)[C@H](NC(=O)OC)c6ccccc6)[nH]5)cc4)ccc3c2)[nH]1)C(C)C [compound 138],< 1
10,COC(=O)N[C@H](C(=O)N1CCC[C@H]1c1ncc(-c2ccc3cc(-c4ccc(-c5cnc([C@@H]6COCCN6C(=O)[C@@H](NC(=O)OC)C(C)C)[nH]5)cc4)ccc3c2)[nH]1)C(C)C [compound 139],< 1
11,COC(=O)N[C@H](C(=O)N1CCC[C@H]1c1ncc(-c2ccc(-c3ccc4cc(-c5cnc([C@@H]6COCCN6C(=O)[C@@H](NC(=O)OC)C(C)C)[nH]5)ccc4c3)cc2)[nH]1)C(C)C [compound 140],< 1
12,COC(=O)N[C@H](C(=O)N1CCC[C@H]1c1ncc(-c2ccc(-c3ccc4cc(-c5cnc([C@@H]6CCCN6C(=O)[C@@H](NC(=O)OC)C6CCOCC6)[nH]5)ccc4c3)c(F)c2)[nH]1)C1CCOCC1 [compound 141],< 1
13,CC[C@@H](C)[C@H](NC(=O)OC)C(=O)N1CCC[C@H]1c1ncc(-c2ccc(-c3ccc4cc(-c5cnc([C@@H]6CCCN6C(=O)[C@@H](NC(=O)OC)[C@H](C)CC)[nH]5)ccc4c3)cc2)[nH]1 [compound 142],< 1
14,COC(=O)N[C@H](C(=O)N1CCC[C@H]1c1ncc(-c2ccc(-c3ccc4cc(-c5cnc([C@@H]6CCCN6C(=O)[C@@H](NC(=O)OC)C6CC6)[nH]5)ccc4c3)cc2)[nH]1)C1CC1 [compound 143],< 1
15,CNC(=O)N[C@@H](C(=O)N1CCC[C@H]1c1ncc(-c2ccc(-c3cc4ccc(-c5cnc([C@@H]6CCCN6C(=O)[C@@H](NC(=O)OC)C6CCOCC6)[nH]5)cc4cn3)cc2)[nH]1)c1ccccc1 [compound 144],< 1
16,COC(=O)N[C@H](C(=O)N1CCC[C@H]1c1ncc(-c2ccc3cc(-c4ccc(-c5cnc([C@@H]6CCCN6C(=O)[C@H](NC(=O)NC6CC6)c6ccccc6)[nH]5)cc4)ncc3c2)[nH]1)C1CCOCC1 [compound 145],< 1
17,COC(=O)N[C@H](C(=O)N1CCC[C@H]1c1ncc(-c2ccc3nc(-c4ccc(-c5cnc([C@@H]6C[C@@H](O)CN6C(=O)[C@@H](NC(=O)OC)C(C)C)[nH]5)cc4)ccc3c2)[nH]1)C(C)C [compound 146],< 1
18,COC(=O)N[C@H](C(=O)N1C[C@H](O)C[C@H]1c1ncc(-c2ccc(-c3ccc4cc(-c5cnc([C@@H]6CCCN6C(=O)[C@@H](NC(=O)OC)C6CCOCC6)[nH]5)ccc4n3)cc2)[nH]1)C(C)C [compound 147],< 1
19,COC(=O)N[C@H](C(=O)N1C[C@H](O)C[C@H]1c1ncc(-c2ccc(-c3ccc4cc(-c5cnc([C@@H]6CCCN6C(=O)[C@H](NC(=O)OC)c6ccccc6)[nH]5)ccc4n3)cc2)[nH]1)C(C)C [compound 148],< 1
20,COC(=O)N[C@H](C(=O)N1C[C@H](O)C[C@H]1c1ncc(-c2ccc(-c3ccc4cc(-c5cnc([C@@H]6CCCN6C(=O)[C@H](NC(=O)OC6CCOCC6)c6ccccc6)[nH]5)ccc4n3)cc2)[nH]1)C(C)C [compound 149],< 1
